The record followed here is patent US20120295845A1, “IMIDAZO-PYRAZOLES AS GPR119 INHIBITORS” (Pfizer Inc, priority 2009, published 2012).

For this assay, the target named is T1, human GPR119 (Homo sapiens, UniProt Q8TDV5).
T1 construct: host or cells: HEK293-CRE beta-lactamase cells
T1 sequence (Q8TDV5 1-335): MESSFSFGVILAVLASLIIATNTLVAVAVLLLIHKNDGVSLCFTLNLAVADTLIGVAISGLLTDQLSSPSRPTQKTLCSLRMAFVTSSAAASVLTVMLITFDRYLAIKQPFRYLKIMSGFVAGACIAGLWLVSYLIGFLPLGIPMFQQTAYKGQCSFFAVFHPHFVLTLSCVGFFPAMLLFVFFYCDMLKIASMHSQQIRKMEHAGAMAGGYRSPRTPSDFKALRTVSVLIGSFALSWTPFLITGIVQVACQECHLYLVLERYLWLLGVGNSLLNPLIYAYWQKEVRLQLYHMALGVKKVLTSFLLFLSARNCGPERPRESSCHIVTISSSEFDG
Nature of the assay: cAMP functional assay (HTRF, hGPR119 HEK-CRE beta-lactamase cells). The assay is classed as cell-based. Conditions: one value per run; for pEC50: hGPR119 HEK-CRE beta-lactamase cells, HTRF cAMP, 30 min incubation with IBMX; for Intrinsic Activity* (cAMP) / Emax: percent of maximal activity relative to standard GPR119 agonist (WO2005121121) at 10 μM; for Emax: read-out: Intrinsic Activity* (cAMP). How it is done: GPR119 agonist activity was also determined with a cell-based assay utilizing an
HTRF (Homogeneous Time-Resolved Fluorescence) cAMP detection kit (cAMP dynamic 2 Assay Kit; Cis Bio cat # 62AM4PEC) that measures cAMP levels in the cell. The method is a competitive immunoassay between native cAMP produced by the cells and the cAMP labeled with the dye d2. The tracer binding is visualized by a Mab anti-cAMP labeled with Cryptate. The specific signal (Le. energy transfer) is inversely proportional to the concentration of cAMP in either standard or sample.
Specifically, hGPR119 HEK-CRE beta-lactamase cells (Invitrogen 2.5×10^7/mL; the same cell line used in the beta-lactamase assay described above) are removed from cryopreservation and diluted in growth medium (Dulbecco's modified Eagle medium high glucose (DMEM; Gibco Cat # 11995-065), 1% charcoal dextran treated fetal bovine serum (CD serum; HyClone Cat # SH30068.03), lx MEM Nonessential amino acids (Gibco Cat # 15630-080) and 25 mM HEPES pH 7.0 (Gibco Cat # 15630-080)). The cell concentration was adjusted to 1.5×10^5 cells/mL and 30 mLs of this suspension was added to a T-175 flask and incubated at 37 degrees Celsius in a humidified environment in 5% carbon dioxide. After 16 hours (overnight), the cells were removed from the T-175 flask (by rapping the side of the flask), centrifuged at 800×g and then re-suspended in assay medium (1×HBSS+CaCl2+MgCl2 (Gibco Cat # 14025-092) and 25 mM HEPES pH 7.0 (Gibco Cat # 15630-080)). The cell concentration was adjusted to 6.25×10^5 cells/mL with assay medium and 8 μl of this cell suspension (5000 cells) was added to each well of a white Greiner 384-well, low-volume assay plate (VWR cat # 82051-458).
Varying concentrations of each compound to be tested were diluted in assay buffer containing 3-isobutyl-1-methylxanthin (1BMX; Sigma cat #15879) and added to the assay plate weds in a volume of 2 microL (final BMX concentration was 400 microM and final DMSO concentration was 0.58%). Following 30 minutes incubation at room temperature, 5 microL of labeled d2 cAMP and 5 microL of anti-cAMP antibody (both diluted 1:20 in cell lysis buffer; as described in the manufacturers assay protocol) were added to each well of the assay plate. The plates were then incubated at room temperature and after 60 minutes, changes in the HTRF signal were read with an Envision 2104 multilabel plate reader using excitation of 330 nm and emissions of 615 and 665 nm. Raw data were converted to nM cAMP by interpolation from a cAMP standard curve (as described in the manufacturer's assay protocol) and EC50 determinations were made from an agonist-response curves analyzed with a curve fitting program using a 4-paramter logistic dose response equation.

pEC50: −log10 of the molar value. Values joined by “and” are separate entries in the source; they are usually repeats but may differ in a detail not shown here. Equal entries are not always repeated.

What is called pEC50 is the EC50 on a negative log10 scale, so that one unit is a factor of ten. Read a low pEC50 as a large EC50. As for `Cc1c(O[C@H]2CCN(C(=O)OC(C)C)C[C@H]2F)ncnc1N1CCn2nccc21` (racemic) [Example 4, Isopropyl (3R,4S)-4-{[6-(2,3-dihydro-1H-imidazo[1,2-b]pyrazol-1-yl)-5-methylpyrimidin-4-yl]oxy}-3-fluoropiperidine-1-carboxylate (racemic)], the pEC50 is 7.49 and 7.35; the “Intrinsic Activity* (cAMP)” value came to 28%; the Emax is 31%.

As for `Cc1c(O[C@H]2CCN(C(=O)OC3(C)CC3)C[C@H]2F)ncnc1N1CCn2nccc21` (racemic) [Example 3, 1-Methylcyclopropyl (3R,4S)-4-{[6-(2,3-dihydro-1H-imidazo[1,2-b]pyrazol-1-yl)-5-methylpyrimidin-4-yl]oxy}-3-fluoropiperidine-1-carboxylate (racemic)], the negative-log EC50 (pEC50) was 7.18 and 7.17; the “Intrinsic Activity* (cAMP)” value is 61%; the Emax was 80%.

For the molecule `Cc1c(OC2CCN(C(=O)OC3(C)CC3)CC2)ncnc1N1CCn2nccc21` [Example 2, 1-Methylcyclopropyl 4-{[6-(2,3-dihydro-1H-imidazo[1,2-b]pyrazol-1-yl)-5-methylpyrimidin-4-yl]oxy}piperidine-1-carboxylate], the pEC50 is 6.93 and 6.59; the Emax was 71%.

Take `Cc1c(O[C@H]2CCN(C(=O)OC3(C)CC3)C[C@H]2F)ncnc1N1CCn2nccc21` (single isomer, unassigned) [Example 6]: the negative logarithm of the EC50 (pEC50) is 7.40 and 6.85 and 7.32 and 7.06 and 7.09; the “Intrinsic Activity* (cAMP)” value was 82% and 89% and 76% and 83%; the Emax came to 86%.

Turning to `Cc1c(OC2CCN(C(=O)OC(C)C)CC2)ncnc1N1CCn2nccc21` [Example 1, Isopropyl 4-{[6-(2,3-dihydro-1H-imidazo[1,2-b]pyrazol-1-yl)-5-methylpyrimidin-4-yl]oxy}piperidine-1-carboxylate], the “Intrinsic Activity* (cAMP)” value is recorded as 27% and the Emax is 28%.

For the molecule `Cc1c(O[C@@H]2CCN(C(=O)OC3(C)CC3)C[C@@H]2F)ncnc1N1CCn2nccc21` (single isomer, unassigned) [Example 5], the pEC50 is 7.42 and 7.44 and 7.47 and 7.31 and 7.33; the “Intrinsic Activity* (cAMP)” value is 68% and 81% and 61%; the Emax amounted to 76%.
